Results from patent US10640545B2 (THE GOVERNORS OF THE UNIVERSITY OF ALBERTA, priority 2017, dated 2020).
Where a SMILES comes first, the peptide text is derived from it. [ ]: non-standard residue; d: D form. Phe(4-Br) = N[C@@H](Cc1ccc(Br)cc1)C(=O)O; NMeL = CN[C@@H](CC(C)C)C(=O)O; Nle = CCCC[C@H](N)C(=O)O; Aib = CC(C)(N)C(=O)O

How the values were obtained:
NEP = NEP (Homo sapiens, UniProt P08473); assay: Kinetic parameters for NEP cleavage; type: biochemical; parameters: purchased Sino Biological; conditions: enzyme NEP
[1] = In vitro peptide stability in human blood plasma (RP-HPLC)
[2] = target: Human plasma kallikrein KLKB1 (Homo sapiens, UniProt P03952); assay: Plasma kallikrein KLKB1 qualitative cleavage assay (MALDI-TOF); conditions: KLKB1, 37° C., first degradation products by MALDI-TOF
Procedure: Native apelin-17 (2) and apelin peptides 5, 56, 57, 58 and 59 were dissolved in Milli-Q water (1 mM). Human plasma kallikrein KLKB1 were each reconstituted in Tris buffer (100 mM TrisHCl, 10 mM CaCl2), 150 mM NaCl) and diluted with Tris buffer (50 mM TrisHCl, 250 mM NaCl) to give a KLKB1 concentration of […]. The KLKB1 enzyme was then preincubated at 37° C. for 10 minutes prior to the addition of 5 μL of apelin peptide (1 mM). Aliquots (1 μL) were taken at 1, 2, 4, 6, 12, 24, 36, and 48 hours and analyzed with MALDI-TOF mass spectrometry to qualitatively determine the time point at which degradation products could be observed (Table 4).

[3] = target: T1, KLKB1 (plasma kallikrein) (Homo sapiens, UniProt P03952); assay: In vitro KLKB1 stability (half-life); type: in vitro ADME; conditions: human
T1 construct: purchased Novoprotein
T1 sequence (P03952 20-638): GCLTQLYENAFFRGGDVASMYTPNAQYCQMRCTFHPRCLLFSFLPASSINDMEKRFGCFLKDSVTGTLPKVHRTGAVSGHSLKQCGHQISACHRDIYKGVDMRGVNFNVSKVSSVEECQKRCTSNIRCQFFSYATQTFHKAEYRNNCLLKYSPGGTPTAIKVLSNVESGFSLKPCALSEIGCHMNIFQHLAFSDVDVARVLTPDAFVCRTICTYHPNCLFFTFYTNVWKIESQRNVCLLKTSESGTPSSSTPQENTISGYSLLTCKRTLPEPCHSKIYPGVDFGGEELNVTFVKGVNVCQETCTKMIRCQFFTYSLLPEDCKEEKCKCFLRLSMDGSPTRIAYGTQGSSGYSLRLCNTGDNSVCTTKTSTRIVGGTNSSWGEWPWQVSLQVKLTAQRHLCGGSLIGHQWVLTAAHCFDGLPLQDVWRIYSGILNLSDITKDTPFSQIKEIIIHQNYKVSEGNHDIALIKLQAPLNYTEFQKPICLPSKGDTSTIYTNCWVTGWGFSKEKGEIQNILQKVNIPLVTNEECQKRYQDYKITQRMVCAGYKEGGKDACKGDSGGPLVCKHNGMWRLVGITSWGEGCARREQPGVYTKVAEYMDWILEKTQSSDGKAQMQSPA

NEP, sequence (P08473 whole entry): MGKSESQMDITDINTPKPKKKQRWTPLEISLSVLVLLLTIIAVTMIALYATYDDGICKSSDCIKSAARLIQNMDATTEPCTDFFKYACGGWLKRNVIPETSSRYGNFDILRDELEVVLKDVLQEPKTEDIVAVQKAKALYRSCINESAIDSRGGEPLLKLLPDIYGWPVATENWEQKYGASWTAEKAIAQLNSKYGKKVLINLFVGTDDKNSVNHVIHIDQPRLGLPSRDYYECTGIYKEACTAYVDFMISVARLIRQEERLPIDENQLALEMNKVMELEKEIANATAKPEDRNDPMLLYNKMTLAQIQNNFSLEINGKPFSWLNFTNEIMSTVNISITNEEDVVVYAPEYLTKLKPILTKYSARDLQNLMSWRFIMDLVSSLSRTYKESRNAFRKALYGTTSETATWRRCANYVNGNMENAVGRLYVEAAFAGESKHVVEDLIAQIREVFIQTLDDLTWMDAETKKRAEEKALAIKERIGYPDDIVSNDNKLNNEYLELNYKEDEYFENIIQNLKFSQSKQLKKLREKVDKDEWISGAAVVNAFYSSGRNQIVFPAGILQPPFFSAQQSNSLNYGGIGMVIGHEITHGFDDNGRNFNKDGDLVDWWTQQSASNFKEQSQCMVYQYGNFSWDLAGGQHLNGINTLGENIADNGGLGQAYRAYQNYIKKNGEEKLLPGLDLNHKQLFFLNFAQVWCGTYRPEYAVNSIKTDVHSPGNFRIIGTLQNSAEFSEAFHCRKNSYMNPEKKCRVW
Human plasma kallikrein KLKB1, sequence (P03952 20-638): as the sequence (P03952 20-638) above

| Km (NEP) [µM] | kcat (NEP) [s⁻¹] | remaining at 0.5 h, 80 µM ([1]; human blood plasma) [%] | remaining at 1 h, 80 µM ([1]; human blood plasma) [%] | t1/2 (hplasma, h) ([1]; plasma) [h] | Degradation Onset Timepoint with KLKB1 [2] [min] | half-life [3] [min] | Compound |
| --- | --- | --- | --- | --- | --- | --- | --- |
| 190 ± 40 | 3.4 ± 0.3 | 51 ± 17 | 39 ± 7 | 0.02 | <30 |  | CSCC[C@H](NC(=O)[C@@H]1CCCN1C(=O)CNC(=O)[C@H](CCCCN)NC(=O)[C@H](Cc1cnc[nH]1)NC(=O)[C@H](CO)NC(=O)[C@H](CC(C)C)NC(=O)[C@H](CCCNC(=N)N)NC(=O)[C@@H]1CCCN1C(=O)[C@H](CCCNC(=N)N)NC(=O)[C@H](CCC(N)=O)NC(=O)[C@H](CCCNC(=N)N)NC(=O)[C@H](CCCNC(=N)N)NC(=O)[C@H](Cc1ccccc1)NC(=O)[C@@H](N)CCCCN)C(=O)N1CCC[C@H]1C(=O)N[C@@H](Cc1ccccc1)C(=O)O [Peptide 2, reference compound] |
|  |  |  |  |  |  | 54 | CCCC[C@H](NC(=O)[C@@H]1CCCN1C(=O)CNC(=O)[C@H](CCCCN)NC(=O)[C@H](Cc1c[nH]cn1)NC(=O)[C@H](CO)NC(=O)[C@H](CC(C)C)N(C)C(=O)[C@H](CCCNC(=N)N)NC(=O)[C@@H]1CCCN1C(=O)[C@H](CCCNC(=N)N)NC(=O)[C@H](CCC(N)=O)NC(=O)[C@H](CCCNC(=N)N)NC(=O)[C@H](CCCNC(=N)N)NC(=O)[C@H](Cc1ccccc1)NC(=O)[C@@H](N)CCCCN)C(=O)NC(C)(C)C(=O)N[C@@H](Cc1ccc(Br)cc1)C(=O)O [Peptide 11] (H-KFRRQRPR[NMeL]SHKGP[Nle][Aib][Phe(4-Br)]-OH; C-terminus assumed) |
